Experimental data published in US20160008471A1, “TRANSDERMAL FORMULATIONS” (priority 2013, published 2016).
Where a name gives a salt, the structure may show the parent alone. Read-outs that look alike come from different tables or passages of the source.

How the values were obtained:
[1] = Solubility of actives in individual solvents
Description: The purpose of these studies was to identify solvents and co-solvents to optimise solubility of actives and the physical/chemical stability of product.

[2] = cited from earlier work; for Solubility (Aq): in words; for pKa (acidic): first pKa (acidic) column
[3] = male, bovine, pH 7.4
[4] = Moxidectin skin deposition study; format: in vitro ADME, bovine; settings: 72 hours
Protocol: The amount of moxidectin accumulating in the bovine skin was determined using whole skin thickness (approx. […]) and split skin thickness (approx. […]) after 72 hours. The skin tissue was physically broken down using a Gentle MACS dissociator (Miltenyi Biotec GmbH, Germany) with 5 mL of methanol added into each sample. The dissociator setting was RNA-02.01 with M-type tubes for 90 seconds. Centrifuged samples had the supernatant collected and diluted 2 times with ACN before being analysed by the HPLC method.

[5] = rabbit
[6] = horse
[7] = at RT; cited from earlier work
[8] = Stability of test composition with surfactants (phase separation, crystals); format: physicochemical; settings: surfactant added to test composition (Table 5); room temperature (24±1° C.)
Protocol: The purpose of this study was to examine the stability of the formula which may comprise surface active agents such as surfactants. […] Three temperatures (RT, 4.5° C. and −20° C.) were used to monitor for phase separation and/or drug crystal formation every one or two days from 6 days.

## abamectin
[1]; in AGNIQUE AMD 10
  Maximum Solubility % w/w: At least 1 % w/w
[1]; in AGNIQUE AMD 810
  Maximum Solubility % w/w: At least 1 % w/w
[1]; in Cremophor
  Maximum Solubility % w/w: At least 1 % w/w
[1]; in DMSO
  Maximum Solubility % w/w: At least 1 % w/w
[1]; in Dipropylenglycol dimethylether
  Maximum Solubility % w/w: At least 1 % w/w
[1]; in Ecoteric T80
  Maximum Solubility % w/w: At least 1 % w/w
[1]; in Glycerol Formal
  Maximum Solubility % w/w: 19 % w/w
[1]; in Isopropyl Mirystate
  Maximum Solubility % w/w: At least 1 % w/w
[1]; in Isopropyleneglycol
  Maximum Solubility % w/w: 7 % w/w
[1]; in Isosorbide
  Maximum Solubility % w/w: At least 1 % w/w
[1]; in PEG400
  Maximum Solubility % w/w: At least 1 % w/w
[1]; in Polysorbate 20
  Maximum Solubility % w/w: At least 1 % w/w
[1]; in Span 80
  Maximum Solubility % w/w: At least 1 % w/w
[1]; in Tetraglycol
  Maximum Solubility % w/w: 8 % w/w
[1]; in Triacetin
  Maximum Solubility % w/w: 3 % w/w
[1]; in Tripropylene glycol methylether (TPGME)
  Maximum Solubility % w/w: 8 % w/w
[2]
  logP: 4.4
  Solubility (Aq): Insoluble

## CO/N=C1\C[C@]2(C[C@@H]3C[C@@H](C/C=C(\C)C[C@@H](C)/C=C/C=C4\CO[C@@H]5[C@H](O)C(C)=C[C@@H](C(=O)O3)[C@]45O)O2)O[C@H](/C(C)=C/C(C)C)[C@H]1C [Moxidectin, moxidectin]
[3]; 72 h
  flux rate of moxidectin: 475±185.2 ng/cm^2/hr
[4]; 500 μm skin
  proportion of the drug in Donor: 51%
  proportion of the drug in Receptor: 31%
  proportion of the drug in Skin: 18%
[4]; Whole skin
  proportion of the drug in Donor: 65%
  proportion of the drug in Receptor: 3%
  proportion of the drug in Skin: 32%
[2]
  Solubility (Aq): Insoluble

## CCN(CC)CCNC(=O)c1cc(Cl)c(N)cc1OC [Metoclopramide, Metacloprimide HCl]
[3]; 0 h
  Mean (μg/cm2) permeated: 0 μg/cm2
[3]; 2 h
  Mean (μg/cm2) permeated: 16.2 μg/cm2
[3]; 4 h
  Mean (μg/cm2) permeated: 251 μg/cm2
[3]; 6 h
  Mean (μg/cm2) permeated: 456 μg/cm2
[3]; 8 h
  Mean (μg/cm2) permeated: 960 μg/cm2
[3]; 20 h
  Mean (μg/cm2) permeated: 2188 μg/cm2
[3]; 24 h
  Mean (μg/cm2) permeated: 2252 μg/cm2
[3]; 26 h
  Mean (μg/cm2) permeated: 2718 μg/cm2
[3]; 44 h
  Mean (μg/cm2) permeated: 4779 μg/cm2
[3]; 48 h
  Mean (μg/cm2) permeated: 5169 μg/cm2
[3]; 52 h
  Mean (μg/cm2) permeated: 5394 μg/cm2
[3]; 58 h
  Flux: 109.4±11.8 μg/cm^2/hr
[3]; 68 h
  Mean (μg/cm2) permeated: 5336 μg/cm2
[3]; 70 h
  Mean (μg/cm2) permeated: 5613 μg/cm2
[3]; 72 h
  APC: 97.1 cm/s × 10^−8
  Extent 72 h: 5346 μg/cm^2
  Flux: 109 μg/cm^2/hr
  Mean (μg/cm2) permeated: 5346 μg/cm2
[3]
  lag T: 1.07 h
[5]
  Flux: 38.6±9.2 μg/cm^2/hr
  lag T: 4.84 h
[5]; 0 h
  Mean (μg/cm2) permeated: 0 μg/cm2
[5]; 2 h
  Mean (μg/cm2) permeated: 0 μg/cm2
[5]; 4 h
  Mean (μg/cm2) permeated: 0 μg/cm2
[5]; 6 h
  Mean (μg/cm2) permeated: 0 μg/cm2
[5]; 8 h
  Mean (μg/cm2) permeated: 0 μg/cm2
[5]; 10 h
  Mean (μg/cm2) permeated: 32.3 μg/cm2
[5]; 20 h
  Mean (μg/cm2) permeated: 685 μg/cm2
[5]; 24 h
  Mean (μg/cm2) permeated: 772 μg/cm2
[5]; 26 h
  Mean (μg/cm2) permeated: 831 μg/cm2
[5]; 28 h
  Mean (μg/cm2) permeated: 925 μg/cm2
[5]; 44 h
  Mean (μg/cm2) permeated: 1537 μg/cm2
[5]; 46 h
  Mean (μg/cm2) permeated: 1612 μg/cm2
[5]; 48 h
  Mean (μg/cm2) permeated: 1567 μg/cm2
[5]; 50 h
  Mean (μg/cm2) permeated: 1782 μg/cm2
[5]; 52 h
  Mean (μg/cm2) permeated: 1968 μg/cm2
[5]; 68 h
  Mean (μg/cm2) permeated: 2391 μg/cm2
[5]; 70 h
  Mean (μg/cm2) permeated: 2387 μg/cm2
[5]; 72 h
  APC: 45.7 cm/s × 10^−8
  Extent 72 h: 2515 μg/cm^2
  Flux: 38.6 μg/cm^2/hr
  Mean (μg/cm2) permeated: 2515 μg/cm2
[6]
  lag T: 3.11 h
[6]; 0 h
  Mean (μg/cm2) permeated: 0 μg/cm2
[6]; 2 h
  Mean (μg/cm2) permeated: 0 μg/cm2
[6]; 4 h
  Mean (μg/cm2) permeated: 0 μg/cm2
[6]; 6 h
  Mean (μg/cm2) permeated: 0 μg/cm2
[6]; 8 h
  Mean (μg/cm2) permeated: 68.1 μg/cm2
[6]; 10 h
  Mean (μg/cm2) permeated: 679 μg/cm2
[6]; 20 h
  Mean (μg/cm2) permeated: 1372 μg/cm2
[6]; 24 h
  Flux: 67.0±24.6 μg/cm^2/hr
  Mean (μg/cm2) permeated: 1533 μg/cm2
[6]; 26 h
  Mean (μg/cm2) permeated: 1477 μg/cm2
[6]; 28 h
  Mean (μg/cm2) permeated: 1640 μg/cm2
[6]; 44 h
  Mean (μg/cm2) permeated: 2604 μg/cm2
[6]; 46 h
  Mean (μg/cm2) permeated: 2784 μg/cm2
[6]; 48 h
  Mean (μg/cm2) permeated: 2910 μg/cm2
[6]; 50 h
  Mean (μg/cm2) permeated: 2930 μg/cm2
[6]; 52 h
  Mean (μg/cm2) permeated: 3078 μg/cm2
[6]; 68 h
  Mean (μg/cm2) permeated: 3350 μg/cm2
[6]; 70 h
  Mean (μg/cm2) permeated: 3440 μg/cm2
[6]; 72 h
  APC: 62.7 cm/s × 10^−8
  Extent 72 h: 3454 μg/cm^2
  Flux: 67.0 μg/cm^2/hr
  Mean (μg/cm2) permeated: 3454 μg/cm2

## c1ccc([C@H]2CN3CCSC3=N2)cc1 [Lev. Base, levamisole base]
[3]; 72 h
  flux rate of levamisole: 949.6±80.8 μg/cm^2/hr
[2]
  logP: 1.8
  pKa (acidic): 8
  Solubility (Aq): Insoluble
[2]; stated for the basic drug LEV
  pKa: 8

## CCCCCCCC/C=C\CCCCCCCCOCCOCCO [Brij 93, polyoxyethylene (2) oleyl ether]
[7]
  HLB: 4.5 ± 0.4

## Tocopherol
[7]
  HLB: 6.0

## C[C@]12CCC(=O)C=C1CC[C@@H]1[C@@H]2[C@@H](O)C[C@@]2(C)[C@H]1CC[C@]2(O)C(=O)CO [Hydrocortisone, Hydrocortisone (base)]
[2]
  pKa (basic): −2.8
  pKa (acidic): 12.6

## Span 80
[7]
  HLB: 4.3

## Span 60
[7]
  HLB: 4.7

## CCCCCCCC/C=C\CCCCCCCC(=O)OCCOCC(OCCO)C1OCC(OCCO)C1OCCO (stereo not shown) [Tween 80]
[8]
  Stability of test composition, RT: S
